In patent publication US3974281A, “5-Methyl-1-phenyl-2-(1H)-pyridone compositions and methods of use” (priority 1974, dated 1976):

How the values were obtained:
[1] = test system: rats with the hind limb inflammed; assay: Analgesic activity, rats with inflamed hind limb (absence of squeal on flexion of inflamed ankle joint); type: in vivo, rat; settings: for ED50: Rattus norvegicus, read-out: oral ED50 (median analgesic dose); for ED50 / side effects at the median analgesic dose: oral; for side effects at the median analgesic dose: at ED50 dosage (AMR-94 160 mg./kg.; AMR-93 325 mg./kg.)
Procedure: the end-point for analgesic testing in rats with the hind limb inflammed is based on the absence of a squeal in response to flexion of the inflammed ankle joint (Method described by S. Margolin, Proceedings of an International Symposium on Non-Steroidal Anti-Inflammatory Drugs, Excerpta Medica International Congress, Series No. 82, 1964).
With AMR-93, the median effective dose was 325 ± 45 mg./kg.

[2] = test system: edema (swelling), experimental inflammation in the hind limb of rats; assay: Anti-inflammatory activity, reduction of edema of experimentally inflamed hind limb; type: in vivo, albino rats; settings: for ED50: Rattus norvegicus, read-out: oral median effective dose (ED50), anti-inflammatory; for anti-inflammatory effect: oral dosage of 600 mg./kg.
Procedure: anti-inflammatory activity was assayed by the method described by Margolin (ibid.) utilizing albino rats. The anti-inflammatory bio-assay basis is the ability to reduce the edema (swelling) when an experimental inflammation is induced in the hind limb of the rats.

[3] = test system: experimentally-induced fever in albino rabbits; assay: Anti-pyretic activity, experimentally-induced fever in rabbits; type: in vivo; settings: for anti-pyretic activity: induced fever
Procedure: anti-pyretic activity testing is based upon the ability of the drug to suppress the experimentally-induced fever in albino rabbits (F. M. Berger, et al. J. Pharmacology and Experimental Therapeutics, Vol. 127, No. 1, 1959 based upon the original presentations of G. Brownlee Quart. J. Pharm; Vol. 10, Pg. 609, 1937 and Quart. J. Pharm., Vol. 12, Pg. 45, 1939). The drugs under test are administered intraperitoneally and the response is compared to that of saline controls. The average change in temperature over a period of three hours following the administration of aminopyrine (100 mg./kg. i.p.), AMR-69 (100 mg./kg. i.p.) and the saline (isotonic) controls were as follows:
The effective anti-pyretic activity of AMR-69 in rabbits has been noted previously.

Acute toxicity in mice = type: in vivo; settings: mouse, in vivo, ip; fasted albino mice, intraperitoneal; read-out: Intraperitoneally LD50
Procedure: in fasted albino mice (Flanders) the LD50 for AMR-69 and aminopyrine was determined by standard procedures with the following results: […]

[4] = test system: mucous membranes of the nasopharynx and lungs; assay: Protection of mucous membranes of the nasopharynx and lungs, comparison with related pyridones; type: in vivo; settings: for protection of mucous membranes of the nasopharynx and lungs: comparison with related pyridones; for side effects / deleterious effects on the respiratory system: mucous membrane protection tests
[5] = General comparison of side effects and therapeutic activity in the several tests; settings: in vivo
serum uric acid = assay: Reduction in serum uric acid levels, rats; type: in vivo, albino male and female rats; settings: albino male and female rats, similar tests
Procedure: normal adult albino male and female rats were given repeated graded doses of AMR-69 and the effect upon serum uric acid levels was determined. There were 10 males and 10 females in each group. The control group received the placebo and the drug was administered orally by admixture to the food. The serum uric acid determination was one of a series performed utilizing the Autotechnicon technique (Lofland et al., 1965 Technicon Symposium) using the Standard SMA-12 procedure (based upon procedure of Bittner et al., AM. J. Clin. Path. 40:423, 1963).
The lowering in serum uric acid levels shown by AMR-69 in tests on rats and on dogs has been noted.

[6] = test system: experimentally-induced fever in albino rabbits; assay: Anti-pyretic activity, experimentally-induced fever in rabbits; type: in vivo; settings: animals without experimentally induced fever as well

| SMILES | ED50 [1] | ED50 ([2]; oral) | average change in temperature over a period of three hours ([3]; 100 mg./kg. i.p., fevered albino rabbits, saline controls +0.9 ±0.17°C) | reduction in fever as compared to the saline control ([3]; 100 mg./kg. i.p., aminopyrine t = 6.6, p < 0.01, AMR-69 t = 6.3, p < 0.01) | LD50 (Acute toxicity in mice) | analgesic activity relative to AMR-69 ([1]; oral route) | anti-inflammatory effect [2] | anti-pyretic activity ([3]; rabbits) | protection of mucous membranes of the nasopharynx and lungs [4] | side effects / deleterious effects on the respiratory system [4] | deleterious side effects in the several tests [5] | therapeutic activity in the several tests [5] | side effects at the median analgesic dose [1] | change in serum uric acid level (serum uric acid) | analgesic effect at a dosage low enough to obviate Central Nervous System depression [1] | side-effects at anti-inflammatory ED50 ([2]; oral) | convulsions observed, test animals ([3]; rabbits) | effect on normal body temperature [6] |
| --- | --- | --- | --- | --- | --- | --- | --- | --- | --- | --- | --- | --- | --- | --- | --- | --- | --- | --- |
| Cc1c(N(C)C)c(=O)n(-c2ccccc2)n1C [Aminopyrine, aminopyrine, reference compound] | 150 ± 26 mg/kg | 185 ± 31 mg/kg | -0.6 ±0.16 °C | highly significant | 175 ± 9 mg/kg |  |  |  |  |  |  |  |  |  |  |  |  |  |
| Cc1cccn(-c2ccccc2)c1=O [AMR-77, 3-methyl-1-phenyl-2-(1H)-pyridone] | 515 ± 45 mg/kg |  |  |  |  | approximately one-third to one-fourth the activity of AMR-69 | No anti-inflammatory effect was observed | No significant anti-pyretic activity was observed | no evidence of protective action | No acute deleterious effects on the respiratory system were observed | not observed | neither was significant therapeutic activity demonstrated |  |  |  |  |  |  |
| O=c1ccccn1-c1ccccc1 [AMR-93, 1-phenyl-2-(1H)-pyridone] | 325 ± 45 mg/kg |  |  |  |  |  | No anti-inflammatory effect was observed | No significant anti-pyretic activity was observed | did not show a protective effect | undesirable side effects were evident | accompanied by deleterious side effects |  | acute bleeding from the nose and an autopsy revealed multiple hemorrhages and edema of the lungs | did not show a significant change in serum uric acid level |  |  |  |  |
| CCc1ccc(=O)n(-c2ccccc2)c1 [AMR-94, 5-ethyl-1-phenyl-2-(1H)-pyridone] | 160 ± 32 mg/kg | 225 ± 52 mg/kg |  |  |  |  |  | slight reduction in induced fever which was not considered statistically significant | did not show a protective effect | undesirable side effects were evident | accompanied by deleterious side effects |  | marked sedation, Central Nervous System depression, loss of respiratory efficiency, ataxia, and uncoordinated gait | did not show a significant change in serum uric acid level | could not be demonstrated | accompanied by undesired side-effects | two of the four | marked lowering of normal body temperature |
